Experimental data: US20250172577A1, “METHODS FOR THE DETECTION AND TREATMENT OF CANCER” (Board of Regents, The University of Texas System, priority 2022, published 2025)
Where two headings read alike, the source gives them in different places.

Assays:
[1] = In vitro toxicity assay (MTS assay), mouse IPMN cell line LGKC 4861; type: cell-based
Experimental: (§1) Experiments were performed in technical triplicates. Statistical significance was determined by 2-sided Student T-test. […] UGT8 inhibitor UGT8-IN-1 or vehicle control (saline) was orally administrated every other day (3 mg/kg) from day-8 post cancer cell implantation for 2 weeks. Tumor volume was measured every 3 days. Statistical significance was determined by 2-way repeated measures ANOVA and treatment factor 2-sided p-value reported.
(§2) In vitro toxicity assays (MTS assays) were performed using three independent mouse IPMN cell lines (LGKC 4301, LGKC 4838, and LGKC 4861). Briefly, each cell line was treated with either vehicle control or the UGT8 inhibitors UGT8-IN-1 or zoledronic acid. Experiments were performed in technical triplicates. Statistical significance was determined by 2-sided Student T-test.

[2] = molecular target: T1, UGT8 (Mus musculus, UniProt Q64676); conditions: cited from earlier work
T1 construct: host or cells: mouse (in vivo, endogenous enzyme)
T1 sequence (Q64676 21-541): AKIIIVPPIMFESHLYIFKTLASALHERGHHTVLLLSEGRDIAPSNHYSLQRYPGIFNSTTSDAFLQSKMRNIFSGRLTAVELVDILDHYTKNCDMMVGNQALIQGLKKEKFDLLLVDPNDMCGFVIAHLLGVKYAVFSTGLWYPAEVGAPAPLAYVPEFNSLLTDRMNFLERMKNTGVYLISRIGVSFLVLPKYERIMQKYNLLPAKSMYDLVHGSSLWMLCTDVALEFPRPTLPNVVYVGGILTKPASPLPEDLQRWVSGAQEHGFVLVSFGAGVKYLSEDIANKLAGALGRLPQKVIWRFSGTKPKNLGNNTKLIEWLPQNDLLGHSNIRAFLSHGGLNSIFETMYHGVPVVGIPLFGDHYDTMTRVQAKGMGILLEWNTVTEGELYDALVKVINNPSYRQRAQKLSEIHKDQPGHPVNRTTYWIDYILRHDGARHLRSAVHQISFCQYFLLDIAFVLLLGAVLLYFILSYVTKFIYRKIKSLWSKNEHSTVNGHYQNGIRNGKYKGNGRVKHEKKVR

[3] = system: LGKC 4301 cells; experiment: In vitro toxicity assay (MTS assay), mouse IPMN cell line LGKC 4301; type: cell-based; conditions: vs vehicle control
Experimental: as §1, §2

[4] = system: mouse IPMN cell line LGKC 4861; experiment: Subcutaneous LGKC 4861 implant in athymic nude mice, tumor volume; type: in vivo; conditions: 3 mg/kg orally every other day from day 8 for 2 weeks, vs vehicle (saline)
[5] = system: LGKC 4838 cells; experiment: In vitro toxicity assay (MTS assay), mouse IPMN cell line LGKC 4838; type: cell-based; conditions: vs vehicle control
Experimental: as §1, §2

Structure (SMILES)	cytotoxicity [1] [%]	inhibition of incorporation of 13C-Gal into GalCer and sulfatide ([2]; 3 mg/kg) [%]	effective dose (ED)50 ([2]; incorporation of 13C-Gal into GalCer and sulfatide) [mg/kg]	effect on cell viability (comparison of the two UGT8 inhibitors) [3]	tumor volume [4]	reduction in cell viability (comparison of the two UGT8 inhibitors) [5]	cytotoxicity ([1]; LGKC 4861 mouse IPMN cells, LGKC 4861 cells, MTS assay, vs vehicle control, read-out: reduction in cell viability) [%]
CNC(=O)c1csc2c(C(F)(F)F)cc(N3CCC(OC(=O)NC(C)COC(F)(F)F)CC3)nc12 (stereo in doubt) [UGT8-IN-1, [1-[3-(methylcarbamoyl)-7-(trifluoromethyl)thieno[3,2-b]pyridin-5-yl]piperidin-4-yl]N-[(2S)-1-(trifluoromethoxy)propan-2-yl]carbamate]	~80	> 90	1	slightly more effective	lower tumor volume compared to vehicle	–	–
O=P(O)(O)C(O)(Cn1ccnc1)P(=O)(O)O [zoledronic acid, Zoledronic acid]	–	–	–	performed similarly	–	greater reduction in cell viability than UGT8-IN-1	~55
